Values of other authors as cited in US20090306403A1, “Production Process for Bicyclic Tetrahydropyrrole Compounds” (priority 2006, published 2009).

What was measured:
sigma (σ-2) site = sigma (σ-2) site (Homo sapiens, UniProt Q5BJF2); conditions: background statement in words
sigma 1 (σ-1) site = sigma 1 (σ-1) site (Homo sapiens, UniProt Q99720); conditions: background statement in words
Sequence of sigma 1 (σ-1) site (Q99720 whole entry): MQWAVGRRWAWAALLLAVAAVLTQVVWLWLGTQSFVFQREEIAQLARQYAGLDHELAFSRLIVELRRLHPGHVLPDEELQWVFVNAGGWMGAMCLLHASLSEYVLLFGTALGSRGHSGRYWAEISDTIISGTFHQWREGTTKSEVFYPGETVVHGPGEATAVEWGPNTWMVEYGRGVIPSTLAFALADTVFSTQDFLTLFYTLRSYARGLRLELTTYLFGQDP

Sequence of sigma (σ-2) site (Q5BJF2 whole entry): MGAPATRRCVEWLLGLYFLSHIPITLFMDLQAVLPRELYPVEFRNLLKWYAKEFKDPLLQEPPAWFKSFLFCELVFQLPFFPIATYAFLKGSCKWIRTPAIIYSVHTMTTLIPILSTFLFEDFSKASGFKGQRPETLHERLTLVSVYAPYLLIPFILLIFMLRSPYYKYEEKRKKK

For SKF 10047, the “affinity for the sigma (σ-2) site” value (sigma (σ-2) site) is listed as “micromolar affinity” and the “affinity for the sigma 1 (σ-1) site” value (sigma 1 (σ-1) site) is listed as “nanomolar affinity”.
